Data set [1] relates to thymidylate synthase. The note with it: in vitro and in vivo models, quantitative-PCR analysis; cited from earlier work.
The nature of data set [2]: FU plasma pharmacokinetics. Particulars: at the MTD. Type of data set: in vivo, human.
Data set [3] has as its system thymidylate synthase. As to the kind of experiment: Tumor thymidylate synthase expression by RT-PCR in liver metastasis biopsies. The note with it: posttreatment biopsies at the MTD levels. It counts as in vivo, human.
For data set [4] the following is noted: 300 mg orally twice daily × 1 week with FOLFOX; cited from earlier work.
The nature of data set [5]: Vorinostat serum pharmacokinetics. Type of data set: in vivo, human.
[6] abbreviates: 600 mg orally twice daily, individual patients, cycle 2.
Where [7] appears, read: 1,700 mg orally once daily, individual patients, cycle 2.

Where “and” joins values, the source holds several entries; their conditions need not be identical. Equal values may be shown once. Entries after “also recorded” stand apart in the source; their conditions may differ. Some results are limits rather than exact numbers.

One may read the Cmax as the peak of the concentration-time curve. By Tmax is commonly meant the time at which the peak concentration occurs. As usually defined, the half-life is how long it takes for the measured level to halve. High values mean slow loss, low ones fast loss. Take `O=C(CCCCCCC(=O)Nc1ccccc1)NO` [vorinostat, suberoylanilide hydroxamic acid]: the “Downregulation of thymidylate synthase expression” value in data set [1] was at most 100 fold. For the same molecule, in data set [2], the “Pharmacokinetic interactions between vorinostat and FU” value was “No pharmacokinetic interactions”. In addition, the “Impact of vorinostat on intratumoral thymidylate synthase expression” value in data set [3] is “No definitive impact; also recorded: no clear signs of thymidylate synthase downregulation”. The “maximum vorinostat serum concentrations” value in data set [4] is under 1.5 µmol/L. The “AUC0–8” value in data set [5] (setting [6]) is 7.8 µM·h; in data set [5] (setting [7]) it was 35.1 µM·h and 2.6 µM·h and 26 µM·h. Moreover, the Cmax in data set [5] (setting [6]) stood at 4.99 µM; in data set [5] (600 mg orally twice daily, mean of 3 patients (SD 1.51)) it was 3.46 µM; in data set [5] (setting [7]), 6.4 µM; in data set [5] (1,700 mg orally once daily, mean of 3 patients (SD 3.09)), 4.49 µM. For the same molecule, the time to peak (Tmax) in data set [5] (setting [6]) is 2 h and 4 h; in data set [5] (setting [7]), 1 h. In data set [5] (human, oral, half-life, general statement in discussion), the half-life was about 2 h.

(Values after paper PMC2931804 (Clinical cancer research : an official journal of the …, 2010).)
